Where two headings read alike, the source gives them in different places.
How the values were obtained:
[1] = system: Puccinia triticina. Synonym: Puccinia recondite f. sp. tritici; assay: Fungicidal activity: Wheat Brown Rust (PUCCRT), wheat plants variety Yuma; format: in vivo; design: key to PUCCRT 3DC Disease Control: A: 50-100; B: More than 0-Less than 50; C: Not Tested; D: No activity noticed in this bioassay; conditions: for pest or weed control at 100 ppm: Puccinia triticina; for PUCCRT 3DC Disease Control: 100 ppm
Experimental: Evaluation of Fungicidal Activity: Wheat Brown Rust (Puccinia triticina. Synonym: Puccinia recondite f. sp. tritici; Bayer Code PUCCRT) Wheat plants (variety Yuma) were grown from seed in a greenhouse in 50% mineral soil/50% soil-less Metro mix until the first leaf was fully emerged, with 7-10 seedlings per pot. These plants were inoculated with an aqueous spore suspension of Puccinia recondite f. sp. tritici either prior to or after fungicide treatments. After inoculation the plants were kept in 100% relative humidity overnight to permit spores to germinate and infect the leaf. The plants were then transferred to a greenhouse set at 24 C for disease to develop.

[2] = system: Mycosphaerella graminicola; Anamorph: Septoria tritici; assay: Fungicidal activity: Leaf Blotch of Wheat (SEPTTR), wheat plants variety Yuma; format: in vivo; design: key to SEPTTR 3DC Disease Control: A: 50-100; B: More than 0-Less than 50; C: Not Tested; D: No activity noticed in this bioassay; conditions: for pest or weed control at 100 ppm: Zymoseptoria tritici
Experimental: Evaluation of Fungicidal Activity: Leaf Blotch of Wheat (Mycosphaerella graminicola; Anamorph: Septoria tritici; Bayer Code […]) Wheat plants (variety Yuma) were grown from seed in a greenhouse in 50% mineral soil/50% soil-less Metro mix until the first leaf was fully emerged, with 7-10 seedlings per pot. These plants were inoculated with an aqueous spore suspension of Septoria tritici either prior to or after fungicide treatments. After inoculation the plants were kept in 100% relative humidity (one day in a dark dew chamber followed by two to three days in a lighted dew chamber) to permit spores to germinate and infect the leaf. The plants were then transferred to a greenhouse at 20° C. for disease to develop.

[3] = 24 h, 1 Day Protectant, read-out: PUCCRT 1DP Disease Control
[4] = 72 h, 3 Day Curative, read-out: PUCCRT 3DC Disease Control
[5] = 24 h, 1 Day Protectant, read-out: SEPTTR 1DP Disease Control
[6] = 72 h, 3 Day Curative, read-out: SEPTTR 3DC Disease Control

| SMILES | pest or weed control at 100 ppm [1, 3] | pest or weed control at 100 ppm [1, 4] | melting point | pest or weed control at 100 ppm [2, 5] | pest or weed control at 100 ppm [2, 6] | PUCCRT 3DC Disease Control ([1]; 3 Day Curative) | SEPTTR 3DC Disease Control ([2]; 100 ppm, 3 Day Curative) |
| --- | --- | --- | --- | --- | --- | --- | --- |
| COc1ccnc(C(=O)N[C@H]2COC(=O)[C@H](Cc3ccc(Cl)cc3)[C@@H](OC(=O)C(C)C)[C@H](C)OC2=O)c1O [Compound 9] | 50 to 100% | 50 to 100% | 192 to 194 °C | 50 to 100% | 0 to 50% | – | – |
| COc1ccnc(C(=O)N[C@H]2COC(=O)[C@H](Cc3ccc(F)cc3F)[C@@H](OC(=O)C(C)C)[C@H](C)OC2=O)c1O [Compound 10] | 50 to 100% | 50 to 100% | 184 to 185 °C | 50 to 100% | 0 to 50% | – | – |
| COc1ccnc(C(=O)N[C@H]2COC(=O)[C@H](CI)[C@@H](OC(=O)C(C)C)[C@H](C)OC2=O)c1O [Compound 11] | 50 to 100% | 50 to 100% | 186 to 191 °C | 50 to 100% | 0 to 50% | – | – |
| COc1ccnc(C(=O)N[C@H]2COC(=O)[C@H](Cc3ccc(-c4ccccc4)cc3)[C@@H](OC(=O)C(C)C)[C@H](C)OC2=O)c1O [Compound 12] | 50 to 100% | 0 to 50% | 214 to 216 °C | 50 to 100% | 0 to 50% | – | – |
| COc1ccnc(C(=O)N[C@H]2COC(=O)[C@H](Cc3cccc(-c4ccccc4)c3)[C@@H](OC(=O)C(C)C)[C@H](C)OC2=O)c1O [Compound 13] | 50 to 100% | 0 to 50% | 182 to 186 °C | 50 to 100% | 0 to 50% | – | – |
| COc1ccnc(C(=O)N[C@H]2COC(=O)[C@H](Cc3cncnc3)[C@@H](OC(=O)C(C)C)[C@H](C)OC2=O)c1O [Compound 14] | 50 to 100% | 50 to 100% | 169 to 175 °C | 0 to 50% | 0 to 50% | – | – |
| COc1ccnc(C(=O)N[C@H]2COC(=O)[C@H](Cc3cccc4ccccc34)[C@@H](OC(=O)C(C)C)[C@H](C)OC2=O)c1O [Compound 15] | 50 to 100% | 0 to 50% | 192 to 197 °C | 50 to 100% | 0 to 50% | – | – |
| COc1ccnc(C(=O)N[C@H]2COC(=O)[C@H](Cc3cccc(C(F)(F)F)c3)[C@@H](OC(=O)C(C)C)[C@H](C)OC2=O)c1O [Compound 16] | 50 to 100% | 0 to 50% | 188 to 190 °C | 50 to 100% | 0 to 50% | – | – |
| C=CC[C@H]1C(=O)OC[C@H](NC(=O)c2nccc(OC)c2O)C(=O)O[C@@H](C)[C@@H]1OC(=O)C(C)C [Compound 17] | 50 to 100% | 50 to 100% | 161 to 165 °C | 50 to 100% | 0 to 50% | – | – |
| CCCC/C=C/C[C@H]1C(=O)OC[C@H](NC(=O)c2nccc(OC)c2O)C(=O)O[C@@H](C)[C@@H]1OC(=O)C(C)C [Compound 18] | 50 to 100% | – | 146 to 148 °C | 50 to 100% | 0 to 50% | D | – |
| COc1ccnc(C(=O)N[C@H]2COC(=O)[C@H](CCOC(=O)c3ccccc3)[C@@H](OC(=O)C(C)C)[C@H](C)OC2=O)c1OCOC(=O)C(C)C [Compound 19, 2-((3S,7R,8R,9S)-8-(isobutyryloxy)-3-(3-(isobutyryloxymethoxy)-4-methoxypicolinamido)-9-methyl-2,6-dioxo-1,5-dioxonan-7-yl)ethyl benzoate] | 50 to 100% | 50 to 100% | 48 to 50 °C | 50 to 100% | 0 to 50% | – | – |
| COc1ccnc(C(=O)N[C@H]2COC(=O)[C@H](Cc3ccc(C)cc3)[C@@H](OC(=O)C(C)C)[C@H](C)OC2=O)c1OCOC(=O)C(C)C [Compound 22] | 50 to 100% | 50 to 100% | 131 to 133 °C | 0 to 50% | 0 to 50% | – | – |
| COc1ccnc(C(=O)N[C@H]2COC(=O)[C@H](Cc3cccnc3)[C@@H](OC(=O)C(C)C)[C@H](C)OC2=O)c1OCOC(=O)C(C)C [Compound 23] | 50 to 100% | 50 to 100% | 171 to 174 °C | 0 to 50% | 0 to 50% | – | – |
| COc1ccnc(C(=O)N[C@H]2COC(=O)[C@H](Cc3cccc(C(F)(F)F)c3)[C@@H](OC(=O)C(C)C)[C@H](C)OC2=O)c1OCOC(=O)C(C)C [Compound 24] | 50 to 100% | 50 to 100% | 100 to 103 °C | 50 to 100% | 0 to 50% | – | – |
| COc1ccnc(C(=O)N[C@H]2COC(=O)[C@H](Cc3cccc(-c4ccccc4)c3)[C@@H](OC(=O)C(C)C)[C@H](C)OC2=O)c1OCOC(=O)C(C)C [Compound 25] | 50 to 100% | 50 to 100% | 55 to 68 °C | 50 to 100% | 0 to 50% | – | – |
| COc1ccnc(C(=O)N[C@H]2COC(=O)[C@H](CCOC(=O)C3CC3)[C@@H](OC(=O)C(C)C)[C@H](C)OC2=O)c1OCOC(=O)C(C)C [Compound 26] | 50 to 100% | 50 to 100% | 68 to 69 °C | 0 to 50% | 0 to 50% | – | – |
| COc1ccnc(C(=O)N[C@H]2COC(=O)[C@H](CC3CCCCC3)[C@@H](OC(=O)C(C)C)[C@H](C)OC2=O)c1OCOC(=O)C(C)C [Compound 27] | 0 to 50% | 0 to 50% | 117 to 119 °C | 0 to 50% | 0 to 50% | – | – |
| COc1ccnc(C(=O)N[C@H]2COC(=O)[C@H](CCOC(=O)c3ccccc3)[C@@H](OC(=O)C(C)C)[C@H](C)OC2=O)c1O [Compound 35, 2-((3S,7R,8R,9S)-3-(3-hydroxy-4-methoxypicolinamido)-8-(isobutyryloxy)-9-methyl-2,6-dioxo-1,5-dioxonan-7-yl)ethyl benzoate] | 50 to 100% | – | 172 to 174 °C | 50 to 100% | – | D | D |
| COc1ccnc(C(=O)N[C@H]2COC(=O)[C@H](CCOC(=O)C3CC3)[C@@H](OC(=O)C(C)C)[C@H](C)OC2=O)c1O [Compound 38] | 50 to 100% | – | 157 to 159 °C | 50 to 100% | 0 to 50% | D | – |
| COc1ccnc(C(=O)N[C@H]2COC(=O)[C@H](CCOC(=O)c3ccc4c(c3)OCO4)[C@@H](OC(=O)C(C)C)[C@H](C)OC2=O)c1O [Compound 39] | 50 to 100% | 0 to 50% | 159 to 161 °C | 50 to 100% | 0 to 50% | – | – |
| COc1ccnc(C(=O)N[C@H]2COC(=O)[C@H](CCOC(=O)c3ccc(-c4ccccc4)cc3)[C@@H](OC(=O)C(C)C)[C@H](C)OC2=O)c1O [Compound 40] | 50 to 100% | – | 178 to 179 °C | 50 to 100% | 0 to 50% | D | – |
| COc1ccnc(C(=O)N[C@H]2COC(=O)[C@H](CCOC(=O)c3ccc(C(F)(F)F)cc3)[C@@H](OC(=O)C(C)C)[C@H](C)OC2=O)c1O [Compound 42] | 50 to 100% | – | 160 to 162 °C | 0 to 50% | 0 to 50% | D | – |
| COc1ccnc(C(=O)N[C@H]2COC(=O)[C@H](CCOC(=O)c3c(F)c(F)c(F)c(F)c3F)[C@@H](OC(=O)C(C)C)[C@H](C)OC2=O)c1O [Compound 43] | 50 to 100% | 0 to 50% | 167 to 168 °C | 50 to 100% | 0 to 50% | – | – |
| CCOCC[C@H]1C(=O)OC[C@H](NC(=O)c2nccc(OC)c2O)C(=O)O[C@@H](C)[C@@H]1OC(=O)C(C)C [Compound 45] | 50 to 100% | 50 to 100% | 134 to 136 °C | 0 to 50% | 0 to 50% | – | – |

— US9131690B2, “Macrocyclic picolinamides as fungicides” (Dow AgroSciences LLC, priority 2012, dated 2015)
